Test results: ChEMBL document CHEMBL1201862, “PubChem BioAssay data set” (2004)
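Protocol summary: plate cells (96-well), add compound at 5 concentrations, incubate 48 h, interpolate endpoints linearly. GI50 is the concentration that inhibits growth by half.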 Activity calls are given as the source filed them. No stated cut-off is given here; in the data, active = GI50 up to about 1.1 µM and inactive = higher.

Experiments:
Assay in all cases: DTP human tumour cell line panel, 48 h
HCC 2998 = test system: HCC 2998
786-0 = test system: 786-0
U-251 = test system: U-251
OVCAR-8 = test system: OVCAR-8
SF-268 = test system: SF-268
SNB-75 = test system: SNB-75
HL-60 = test system: HL-60
SW-620 = test system: SW-620
A498 = test system: A498
Malme-3M = test system: Malme-3M
HOP-92 = test system: HOP-92
CCRF-CEM = test system: CCRF-CEM
KM12 = test system: KM12
COLO 205 = test system: COLO 205
SNB-19 = test system: SNB-19
NCI-H522 = test system: NCI-H522
IGROV-1 = test system: IGROV-1
OVCAR-5 = test system: OVCAR-5
DU-145 = test system: DU-145
Hs-578T = test system: Hs-578T

Row | Compound | GI50 (HCC 2998) | GI50 (786-0) | GI50 (U-251) | GI50 (OVCAR-8) | GI50 (SF-268) | GI50 (SNB-75) | GI50 (HL-60) | GI50 (SW-620) | GI50 (A498) | GI50 (Malme-3M) | GI50 (HOP-92) | GI50 (CCRF-CEM) | GI50 (KM12) | GI50 (COLO 205) | GI50 (SNB-19) | GI50 (NCI-H522) | GI50 (IGROV-1) | GI50 (OVCAR-5) | GI50 (DU-145) | GI50 (Hs-578T)
1 | C=C(C)C1CC=C(C(=O)O)CC1 (centres undefined) | 1080 µM (inactive) | 1410 µM (inactive) | 1060 µM (inactive) | 1200 µM (inactive) | 1190 µM (inactive) | 1200 µM (inactive) | 906 µM (inactive) | 1740 µM (inactive) | 1210 µM (inactive) | 809 µM (inactive) | 1440 µM (inactive) | 863 µM (inactive) | 859 µM (inactive) | 592 µM (inactive) | 1190 µM (inactive) | 887 µM (inactive) | 774 µM (inactive) | 1660 µM (inactive) | – | –
2 | N#CC(c1ccc(Cl)cc1)c1cccc(Cl)n1 (centres undefined) | 61 µM (inactive) | 82.2 µM (inactive) | 97.9 µM (inactive) | > 100 µM (inactive) | 38.4 µM (inactive) | 21.5 µM (inactive) | 47.1 µM (inactive) | > 100 µM (inactive) | 74.8 µM (inactive) | 74.5 µM (inactive) | 30.2 µM (inactive) | > 100 µM (inactive) | 78.3 µM (inactive) | 67.1 µM (inactive) | > 100 µM (inactive) | 22.4 µM (inactive) | – | > 100 µM (inactive) | – | –
3 | CCCOCN1COCN/C1=N\C#N | > 100 µM (inactive) | 22 µM (inactive) | 21.6 µM (inactive) | > 100 µM (inactive) | 39.1 µM (inactive) | > 100 µM (inactive) | > 100 µM (inactive) | 14 µM (inactive) | > 100 µM (inactive) | > 100 µM (inactive) | > 100 µM (inactive) | – | > 100 µM (inactive) | 17.9 µM (inactive) | > 100 µM (inactive) | > 100 µM (inactive) | > 100 µM (inactive) | > 100 µM (inactive) | – | –
4 | CCCCC(O)(c1ccccc1)C(O)(c1ccccc1)c1c(F)c(F)c(F)c(F)c1F (centres undefined) | 15.7 µM (inactive) | 20.1 µM (inactive) | 17.3 µM (inactive) | 22.1 µM (inactive) | 20 µM (inactive) | 37.2 µM (inactive) | 21.3 µM (inactive) | 25.2 µM (inactive) | 25.5 µM (inactive) | 16.7 µM (inactive) | 17.4 µM (inactive) | 25.4 µM (inactive) | – | > 10 µM (inactive) | 41.8 µM (inactive) | – | 33.3 µM (inactive) | 18.3 µM (inactive) | 48.1 µM (inactive) | –
5 | Cn1c(=O)oc2cc(C(=O)CN3CCN(Cc4ccc5c(c4)OCO5)CC3)c(Cl)cc21 | > 100 µM (inactive) | > 100 µM (inactive) | > 100 µM (inactive) | – | > 100 µM (inactive) | > 100 µM (inactive) | > 100 µM (inactive) | – | – | > 100 µM (inactive) | – | > 100 µM (inactive) | – | > 100 µM (inactive) | > 100 µM (inactive) | – | > 100 µM (inactive) | > 100 µM (inactive) | > 100 µM (inactive) | > 100 µM (inactive)
6 | O=C(/C=C/c1ccc(O)c([N+](=O)[O-])c1)CC(=O)/C=C/c1ccc(O)c([N+](=O)[O-])c1 | – | > 100 µM (inactive) | 21.4 µM (inactive) | 19.8 µM (inactive) | 54.6 µM (inactive) | > 100 µM (inactive) | 21.7 µM (inactive) | 37.1 µM (inactive) | – | – | – | 30.5 µM (inactive) | 30.5 µM (inactive) | 47.4 µM (inactive) | 88.9 µM (inactive) | 36.3 µM (inactive) | 24.9 µM (inactive) | 44.9 µM (inactive) | 28.4 µM (inactive) | > 100 µM (inactive)
7 | Cn1c(=O)n2n(c1=O)[C@@H](c1ccccc1)[C@H]2c1ccccc1 | > 100 µM (inactive) | > 100 µM (inactive) | > 100 µM (inactive) | > 100 µM (inactive) | – | 31 µM (inactive) | 20.6 µM (inactive) | > 100 µM (inactive) | > 100 µM (inactive) | > 100 µM (inactive) | > 100 µM (inactive) | > 100 µM (inactive) | > 100 µM (inactive) | > 100 µM (inactive) | > 100 µM (inactive) | – | > 100 µM (inactive) | > 100 µM (inactive) | – | > 100 µM (inactive)
8 | NC(=O)C(=O)N/N=C1\C(=O)N(c2ccc(Cl)cc2Cl)C(=O)C1C(=O)Nc1ccc(Cl)cc1Cl (centres undefined) | > 100 µM (inactive) | > 100 µM (inactive) | > 100 µM (inactive) | > 100 µM (inactive) | > 100 µM (inactive) | 28.8 µM (inactive) | > 100 µM (inactive) | > 100 µM (inactive) | > 100 µM (inactive) | > 100 µM (inactive) | > 100 µM (inactive) | > 100 µM (inactive) | > 100 µM (inactive) | > 100 µM (inactive) | > 100 µM (inactive) | > 100 µM (inactive) | > 100 µM (inactive) | > 100 µM (inactive) | – | –
9 | Cc1cc(=O)n(-c2ccccc2)c(=O)o1 | > 100 µM (inactive) | > 100 µM (inactive) | > 100 µM (inactive) | – | > 100 µM (inactive) | > 100 µM (inactive) | > 100 µM (inactive) | > 100 µM (inactive) | > 100 µM (inactive) | > 100 µM (inactive) | > 100 µM (inactive) | > 100 µM (inactive) | > 100 µM (inactive) | > 100 µM (inactive) | > 100 µM (inactive) | 62.7 µM (inactive) | > 100 µM (inactive) | > 100 µM (inactive) | – | –
10 | O=C(COc1ccc(Cl)cc1)N1CCN(C(=O)COc2ccc(Cl)cc2)c2ccccc21 | > 100 µM (inactive) | 64.9 µM (inactive) | 74 µM (inactive) | 53.2 µM (inactive) | 41.6 µM (inactive) | 45.6 µM (inactive) | 13.4 µM (inactive) | > 100 µM (inactive) | 74.8 µM (inactive) | 36.6 µM (inactive) | 30.3 µM (inactive) | 34 µM (inactive) | 57 µM (inactive) | 45.2 µM (inactive) | – | 22.5 µM (inactive) | 50.7 µM (inactive) | 70 µM (inactive) | – | –
11 | O=C(C=P(c1ccccc1)(c1ccccc1)c1ccccc1)CC(=S)CC(=O)C=P(c1ccccc1)(c1ccccc1)c1ccccc1 | 3.85 µM (inactive) | 4.16 µM (inactive) | 2.29 µM (inactive) | 3.56 µM (inactive) | 5.19 µM (inactive) | – | 1.98 µM (inactive) | 4.29 µM (inactive) | 4.14 µM (inactive) | 5.01 µM (inactive) | 1.65 µM (inactive) | 3.24 µM (inactive) | 3.81 µM (inactive) | 1.89 µM (inactive) | 4.33 µM (inactive) | 2.74 µM (inactive) | 4.66 µM (inactive) | 18.2 µM (inactive) | – | –
12 | COc1cccc(C2c3cc4c(cc3OC(N3CCCC3)C2c2ccccc2)OCO4)c1O (centres undefined) | 11 µM (inactive) | 8.32 µM (inactive) | – | 10.3 µM (inactive) | 9.02 µM (inactive) | 5.74 µM (inactive) | – | 7.78 µM (inactive) | – | – | – | 5.13 µM (inactive) | 2.76 µM (inactive) | 7.24 µM (inactive) | 5.57 µM (inactive) | 12 µM (inactive) | 7.59 µM (inactive) | 25.2 µM (inactive) | 11.9 µM (inactive) | 0.279 µM (active)
13 | CC(=O)OCC1OC(N2C(=O)C(=O)c3ccccc32)C(OC(C)=O)C(OC(C)=O)C1OC(C)=O (centres undefined) | > 100 µM (inactive) | > 100 µM (inactive) | > 100 µM (inactive) | > 100 µM (inactive) | > 100 µM (inactive) | > 100 µM (inactive) | – | > 100 µM (inactive) | > 100 µM (inactive) | > 100 µM (inactive) | > 100 µM (inactive) | > 100 µM (inactive) | > 100 µM (inactive) | > 100 µM (inactive) | > 100 µM (inactive) | > 100 µM (inactive) | > 100 µM (inactive) | – | – | –
14 | CC(C)OC(=O)C1Cc2c([nH]c3ccccc23)C(c2ccccc2)N1 (centres undefined) | 30.5 µM (inactive) | 27.7 µM (inactive) | > 100 µM (inactive) | > 100 µM (inactive) | 56.9 µM (inactive) | 18.3 µM (inactive) | 33 µM (inactive) | > 100 µM (inactive) | 88.5 µM (inactive) | 25.7 µM (inactive) | 55 µM (inactive) | 79.4 µM (inactive) | 97.1 µM (inactive) | > 100 µM (inactive) | > 100 µM (inactive) | 29.2 µM (inactive) | > 100 µM (inactive) | > 100 µM (inactive) | – | –
15 | C[N+](C)(C)CC(=O)N/N=C(\CCC(=O)NCCc1ccccc1)CC(=O)c1ccccc1 | > 100 µM (inactive) | > 100 µM (inactive) | > 100 µM (inactive) | > 100 µM (inactive) | > 100 µM (inactive) | – | > 100 µM (inactive) | > 100 µM (inactive) | > 100 µM (inactive) | > 100 µM (inactive) | > 100 µM (inactive) | > 100 µM (inactive) | > 100 µM (inactive) | > 100 µM (inactive) | > 100 µM (inactive) | > 100 µM (inactive) | > 100 µM (inactive) | > 100 µM (inactive) | – | –
16 | Cc1ccc(-c2cc(O)c3cc4c(cc3n2)OCO4)cc1 | 1.42 µM (inactive) | 1.78 µM (inactive) | 1.59 µM (inactive) | 3.2 µM (inactive) | 2.96 µM (inactive) | 1.37 µM (inactive) | 0.43 µM (active) | 0.482 µM (active) | 0.615 µM (active) | 0.52 µM (active) | 1.87 µM (inactive) | 1.05 µM (active) | 0.836 µM (active) | 0.63 µM (active) | 3.12 µM (inactive) | 1.63 µM (inactive) | 3.48 µM (inactive) | 2.61 µM (inactive) | – | –
